Test results taken from PubChem BioAssay (NCI).
Values joined by “and” are separate entries in the source; they are usually repeats but may differ in a detail not shown here. Equal values may be shown once.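 Briefly, cells in 96-well plates were exposed to five compound concentrations for 48 h, and endpoints were estimated by linear interpolation. Abbreviation: GI50, concentration required for 50% inhibition of growth. TGI is the concentration that stops growth completely.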

Legend:
Experiment in all cases: NCI anticancer screen, dose series, 48 h
CAKI-1 renal = test system: CAKI-1 renal
EKVX NSCLC = test system: EKVX NSCLC
HCT-116 colon = test system: HCT-116 colon
NCI-H460 lung = test system: NCI-H460 lung
OVCAR-4 ovarian = test system: OVCAR-4 ovarian
PC-3 prostate = test system: PC-3 prostate
RXF 393 renal = test system: RXF 393 renal
SF-295 CNS = test system: SF-295 CNS
SNB-19 CNS = test system: SNB-19 CNS
SR leukemia = test system: SR leukemia

Compound	TGI (CAKI-1 renal)	TGI (EKVX NSCLC) [µM]	TGI (HCT-116 colon)	TGI (NCI-H460 lung)	TGI (OVCAR-4 ovarian)	TGI (PC-3 prostate)	TGI (RXF 393 renal)	TGI (SF-295 CNS)	TGI (SNB-19 CNS)	TGI (SR leukemia)	GI50 (CAKI-1 renal)	GI50 (EKVX NSCLC) [µM]	GI50 (HCT-116 colon)	GI50 (NCI-H460 lung)	GI50 (OVCAR-4 ovarian)	GI50 (PC-3 prostate)	GI50 (RXF 393 renal)	GI50 (SF-295 CNS)	GI50 (SNB-19 CNS)	GI50 (SR leukemia)
Cc1ccc2nc(N/N=C/c3cccc(C)n3)cc(C)c2c1	31 µM	35.7	32.1 µM	23.2 µM	41.5 µM	37.2 µM	31.6 µM	31.6 µM	44.8 µM	45.3 µM	–	–	–	–	–	–	–	–	–	–
O=[N+]([O-])/C=C/c1ccc([N+](=O)[O-])cc1	21.1 µM	31.8	3.08 µM	22.6 µM	22.3 µM	24.8 µM	2.98 µM	24 µM	14.9 µM	8.33 µM	4.16 µM	14.1	1.52 µM	4.57 µM	3.65 µM	5.46 µM	1.52 µM	6.87 µM	3.53 µM	2.29 µM
C=C1C(=O)O[C@H]2C[C@@H]1CCC1(C)OC1CC/C(C)=C/CC[C@H]2C (stereo partly drawn)	–	44.3	31.5 µM	33.1 µM	–	33.5 µM	43.1 µM	26.3 µM	32.9 µM	33 µM	–	24.3	17.7 µM	17.1 µM	–	19.4 µM	21.4 µM	12.3 µM	16 µM	18.1 µM
CC[C@@]1(O)C(=O)OCc2c1cc1n(c2=O)Cc2cc3c(NC(=O)CN)cccc3nc2-1	2.14 µM	> 100	> 56.1 µM	2.94 µM	> 100 µM	> 100 µM	0.354 µM	20.4 µM	> 100 µM	< 0.0121 µM	–	–	–	–	–	–	–	–	–	–
C[C@@H]1COC(Nc2ccc3ncnc(Nc4ccc(OCc5nccs5)c(Cl)c4)c3c2)=N1	> 10 µM and 15.1 µM	> 10	> 10 µM and 19 µM	> 10 µM and 26.5 µM	> 10 µM and 17.3 µM	> 10 µM and 13.2 µM	> 10 µM and 20.7 µM	> 10 µM and 18.6 µM	> 10 µM and 32.4 µM	> 10 µM and 21.9 µM	2.24 µM and 0.685 µM	0.252	3.94 µM and 4.75 µM	8.17 µM and 8.76 µM	5.72 µM and 3.79 µM	3.37 µM and 2.98 µM	> 10 µM and 6.81 µM	4.9 µM and 4.54 µM	> 10 µM and 12.4 µM	6.79 µM and 3.97 µM
COc1ccc(C2=C(c3cc(OC)c(OC)c(OC)c3)C(=O)OC2)cc1OC	1.24 µM	> 100	55.5 µM	> 42.6 µM	> 100 µM	> 100 µM	> 100 µM	0.0217 µM	> 100 µM	–	< 0.01 µM	34.5	0.0548 µM	< 0.0222 µM	2.65 µM	< 0.0151 µM	0.0146 µM	< 0.01 µM	0.891 µM	< 0.01 µM
NC1=NC(c2ccc(F)cc2)C2=C(N1)c1ccc3ccccc3c1OCC2 (stereo not drawn)	70.6 µM	75.2	–	> 100 µM	> 100 µM	> 100 µM	> 100 µM	48.4 µM	> 100 µM	> 100 µM	12.3 µM	5.95	–	6.96 µM	> 100 µM	> 100 µM	18.7 µM	3.47 µM	16.2 µM	2.37 µM
O=C1C=CC(=O)c2c1ncc1c2nc2sccn21	42.5 µM	44.7	37.8 µM	> 100 µM	59.8 µM	30.6 µM	64.8 µM	> 100 µM	> 100 µM	35.3 µM	19.5 µM	20.2	12.5 µM	27.2 µM	27.7 µM	15.2 µM	20.8 µM	48.3 µM	63.8 µM	3.53 µM
COc1cc2c(cc1OC)-c1c(c3ccc([N+](=O)[O-])cc3c(=O)n1CCCN)C2=O	9.16 µM	18.3	1.46 µM	8.97 µM	2.72 µM	12.3 µM	4.12 µM	10.5 µM	5.9 µM	0.346 µM	0.658 µM	7.75	0.57 µM	0.403 µM	1.07 µM	6.1 µM	1.21 µM	0.0566 µM	0.944 µM	0.0386 µM
CNCCOC(=O)/C=C1/CCC2C(C(O)CC3C(C)(C(=O)OC)CCCC23C)C1C (stereo not drawn)	0.053 µM	0.0331	0.0311 µM	0.019 µM	0.034 µM	0.202 µM	0.0521 µM	0.0452 µM	0.152 µM	0.0553 µM	0.0202 µM	< 0.0136	0.0158 µM	< 0.01 µM	0.0183 µM	0.0214 µM	0.0156 µM	0.0209 µM	0.0428 µM	0.0198 µM
COc1cc2c(cc1OCCCN1CCN(c3cc(=O)oc4c(C)c(OC)ccc34)CC1)N=C[C@@H]1CCCN1C2=O	7.17 µM	> 47.3	8.94 µM	> 26.4 µM	10.1 µM	12.8 µM	1.02 µM	> 30.4 µM	> 100 µM	0.598 µM	2.46 µM	4.05	1.16 µM	1.45 µM	2 µM	1.19 µM	0.424 µM	2.49 µM	2.52 µM	0.248 µM
COc1ccc(C(=O)CC(c2ccc(OC)c(OC)c2)c2c(O)c3ccccc3oc2=O)cc1OC (stereo not drawn)	> 100 µM	> 100	> 100 µM	> 100 µM	> 100 µM	> 100 µM	> 100 µM	> 100 µM	> 100 µM	> 100 µM	–	–	–	–	–	–	–	–	–	–
Cc1ccccc1C(C(=O)NC1CCCCC1)N(C(=O)Cn1ccnc1C)c1cccc(F)c1 (stereo not drawn)	> 100 µM	> 100	> 100 µM	> 100 µM	> 100 µM	> 100 µM	40.5 µM	> 65.6 µM	> 100 µM	> 100 µM	> 57.4 µM	> 100	46.2 µM	> 100 µM	> 76.7 µM	> 100 µM	7.5 µM	28.8 µM	57 µM	> 100 µM
